Results: patent US6107288A, “Antiviral nucleoside combination” (priority 1991, dated 2000)
Where “and” joins values, the source holds several entries; their conditions need not be identical. Equal entries are not always repeated. Where two headings read alike, the source gives them in different places.

Tested on: HIV
Type: cell-based
Method: Combinations according to the invention were tested for anti-HIV activity in an HIV-infected MT4 cell assay as described in Averett, D. R., J. Virol. Methods, 23, 263-276 (1989). The cells were exposed to HIV for one hour prior to addition of antiviral component(s). Components were tested in serial 2.5-fold dilutions. After five days of incubation at 37° C., the cell number was determined. Inhibition of HIV-induced cytopathic effect was calculated, and synergism was determined by FIC plots as described by Elion, Singer, and Hitchings, J. Biol. Chem. 208, 477 (1954).
The fractional inhibitor concentrations (FIC) of zidovudine and cis-1-(2-(hydroxymethyl)-1,3-oxathiolan-5-yl)-5-fluorocytosine were calculated according to the method of Elion et al., supra (Table 1).

SMILES	Fractional Inhibitor Concentration (FIC) (70% inhibition, combination of zidovudine 0.004 with Compound 1 2.5)	Fractional Inhibitor Concentration (FIC) (70% inhibition, combination of zidovudine 0.01 with Compound 1 2.0)	Fractional Inhibitor Concentration (FIC) (70% inhibition, combination of zidovudine 0.0256 with Compound 1 1.6)	Fractional Inhibitor Concentration (FIC) (70% inhibition, combination of zidovudine 0.06 with Compound 1 1.4)	Fractional Inhibitor Concentration (FIC)
Cc1cn([C@H]2C[C@H](N=[N+]=[N-])[C@@H](CO)O2)c(=O)[nH]c1=O [Zidovudine, 3'-azido-3'-deoxythymidine]	0.018	0.045	0.12	0.27	–
Nc1nc(=O)n([C@@H]2CS[C@H](CO)O2)cc1F (relative stereo) [Compound 1, cis1-(2-(hydroxymethyl)-1,3-oxathiolan-5-yl)-5-fluorocytosine]	–	–	–	–	0.48 and 0.38 and 0.31 and 0.26
